Data on 16 compounds can be found in patent publication US20210122730A1, “GLUCOCORTICOID RECEPTOR MODULATORS” (ORIC Pharmaceuticals, Inc., priority 2017, published 2021).

In series [1] the target is T1, GR (Homo sapiens, UniProt P04150).
T1 construct: expressed in transfected cells; host or cells: CHO-K1
T1 sequence (P04150 1-777): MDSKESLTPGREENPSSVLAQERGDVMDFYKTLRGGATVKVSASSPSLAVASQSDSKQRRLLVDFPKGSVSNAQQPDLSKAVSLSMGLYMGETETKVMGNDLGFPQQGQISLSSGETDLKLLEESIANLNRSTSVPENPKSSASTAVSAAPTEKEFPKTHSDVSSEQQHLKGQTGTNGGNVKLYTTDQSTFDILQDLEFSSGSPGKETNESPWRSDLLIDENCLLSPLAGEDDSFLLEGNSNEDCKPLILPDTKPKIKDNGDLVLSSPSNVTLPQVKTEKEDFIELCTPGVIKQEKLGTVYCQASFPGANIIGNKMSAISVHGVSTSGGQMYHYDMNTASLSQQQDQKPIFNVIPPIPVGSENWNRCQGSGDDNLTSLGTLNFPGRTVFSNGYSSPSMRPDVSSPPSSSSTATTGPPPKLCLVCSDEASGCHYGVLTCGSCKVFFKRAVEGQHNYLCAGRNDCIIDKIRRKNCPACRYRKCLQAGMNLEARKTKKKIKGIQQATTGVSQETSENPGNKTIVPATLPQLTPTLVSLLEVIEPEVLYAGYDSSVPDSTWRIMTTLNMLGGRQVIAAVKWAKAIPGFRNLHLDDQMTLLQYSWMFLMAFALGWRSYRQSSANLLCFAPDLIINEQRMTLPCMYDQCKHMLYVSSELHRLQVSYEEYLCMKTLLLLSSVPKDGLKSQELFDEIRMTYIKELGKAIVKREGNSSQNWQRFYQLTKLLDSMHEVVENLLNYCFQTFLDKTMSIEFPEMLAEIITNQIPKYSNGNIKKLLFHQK
The series can be described thus: In Vitro GR Luciferase Reporter Assay (antagonist mode, CHO-K1-GR-MMTV-Luc reporter cells). The conditions noted are these: antagonist mode, 10 nM Dexamethasone. The series is classed as cell-based. An outline of the steps:
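Antagonist mode: compounds (8 serial 1:5 dilutions) added to GR-MMTV-luciferase CHO-K1 reporter cells co-exposed to 10 nM dexamethasone final, in phenol red-free DMEM plus 10% CSS. After roughly 18-24 h at 37° C, OneGlo luminescence read and IC50 calculated.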

In series [2] the target is T2, CYP2C8 (Homo sapiens, UniProt P10632).
T2 construct: Pooled human microsomes were obtained from Sekisui XenoTech, KS; tissue Sekisui XenoTech, KS; host or cells: pooled human liver microsomes
T2 sequence (P10632 1-490): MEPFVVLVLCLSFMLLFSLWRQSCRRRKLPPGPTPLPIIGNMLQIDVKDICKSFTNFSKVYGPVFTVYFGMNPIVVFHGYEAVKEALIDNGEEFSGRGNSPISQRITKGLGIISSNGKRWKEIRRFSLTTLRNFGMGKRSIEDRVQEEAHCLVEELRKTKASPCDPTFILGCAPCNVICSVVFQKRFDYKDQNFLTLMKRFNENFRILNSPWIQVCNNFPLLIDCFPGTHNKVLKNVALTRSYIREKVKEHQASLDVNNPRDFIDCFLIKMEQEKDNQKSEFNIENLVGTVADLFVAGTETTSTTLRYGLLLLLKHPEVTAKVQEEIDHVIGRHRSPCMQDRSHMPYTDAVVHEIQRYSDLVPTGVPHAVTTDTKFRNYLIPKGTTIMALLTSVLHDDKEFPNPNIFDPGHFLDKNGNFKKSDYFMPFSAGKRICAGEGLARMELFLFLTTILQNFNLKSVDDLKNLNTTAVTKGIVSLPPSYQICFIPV
The series can be described thus: CYP Inhibition Assay (CYP2C8, human liver microsomes, paclitaxel substrate). The series is classed as in vitro ADME. The settings on record: pH 7.4; pooled human liver microsomes 0.1 mg/mL, probe substrate paclitaxel. The method, boiled down:
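CYP2C8 activity read as 6α-hydroxypaclitaxel formation by LC-MS/MS, with % inhibition versus vehicle control. Reactions ran 5 min at 37° C, pH 7.4 phosphate buffer, 0.1 mg/mL pooled human liver microsomes, 1 mM NADPH, duplicate wells.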
In general terms: Liver microsomes are vesicles of endoplasmic reticulum, rich in cytochrome P450 enzymes.

A value given as a limit tells only on which side of the number the result lay.

One may read the IC50 as the point on the concentration scale where inhibition reaches its midpoint. A higher IC50 goes with a need for much substance. By inhibition is commonly meant the relative decrease from the control value, in per cent. Low readings indicate a weak effect, high ones a strong effect. Take `Cn1cc(S(=O)(=O)N(CC(F)(F)F)[C@H]2CCC3=Cc4c(cnn4-c4ccc(F)cc4)C[C@]3(C(=O)c3cc(F)ccn3)C2)cn1` [Example 260, N-((4aS,6S)-1-(4-fluorophenyl)-4a-(4-fluoropicolinoyl)-4,4a,5,6,7,8-hexahydro-1H-benzo[f]indazol-6-yl)-1-methyl-N-(2,2,2-trifluoroethyl)-1H-pyrazole-4-sulfonamide]: in series [1], the IC50 was at most 100 nM. The inhibition at 5 min in series [2] was in the range of 50 to 75%.
The like results for `Cn1ccnc1S(=O)(=O)N(C1CC1)[C@H]1CCC2=Cc3c(cnn3-c3ccc(F)cc3)C[C@]2(C(=O)c2cc(C(F)(F)F)ccn2)C1` [Example 261, N-cyclopropyl-N-((4aS,6S)-1-(4-fluorophenyl)-4a-(4-(trifluoromethyl)picolinoyl)-4,4a,5,6,7,8-hexahydro-1H-benzo[f]indazol-6-yl)-1-methyl-1H-imidazole-2-sulfonamide] were, in that order, at most 100 nM and 50 to 75%.
The corresponding values for `Cn1ncc(S(=O)(=O)N(C2CC2)[C@H]2CCC3=Cc4c(cnn4-c4ccc(F)cc4)C[C@]3(C(=O)c3cc(Cl)ccn3)C2)n1` [Example 262, N-((4aS,6S)-4a-(4-chloropicolinoyl)-1-(4-fluorophenyl)-4,4a,5,6,7,8-hexahydro-1H-benzo[f]indazol-6-yl)-N-cyclopropyl-2-methyl-2H-1,2,3-triazole-4-sulfonamide] are at most 100 nM and 50 to 75%.
The corresponding values for `Cn1ncc(S(=O)(=O)N(C2CC2)[C@H]2CCC3=Cc4c(cnn4-c4ccc(F)cc4)C[C@]3(C(=O)c3cc(F)ccn3)C2)n1` [Example 263, N-cyclopropyl-N-((4aS,6S)-1-(4-fluorophenyl)-4a-(4-fluoropicolinoyl)-4,4a,5,6,7,8-hexahydro-1H-benzo[f]indazol-6-yl)-2-methyl-2H-1,2,3-triazole-4-sulfonamide] are at most 100 nM and 75 to 90%.
In turn, `Cn1cc(S(=O)(=O)N(C2CC2)[C@H]2CCC3=Cc4c(cnn4-c4ccc(F)cc4)C[C@]3(C(=O)c3cc(F)ccn3)C2)nn1` [Example 265, N-cyclopropyl-N-((4aS,6S)-1-(4-fluorophenyl)-4a-(4-fluoropicolinoyl)-4,4a,5,6,7,8-hexahydro-1H-benzo[f]indazol-6-yl)-1-methyl-1H-1,2,3-triazole-4-sulfonamide] showed an IC50 in series [1] of at most 100 nM. The same compound returned an inhibition at 5 min in series [2] of 50 to 75%.
The corresponding values for `Cn1ccnc1S(=O)(=O)N(C1CC1)[C@H]1CCC2=Cc3c(cnn3-c3ccc(F)cc3)C[C@]2(C(=O)c2ncc(C(F)(F)F)s2)C1` [Example 266, N-cyclopropyl-N-((4aS,6S)-1-(4-fluorophenyl)-4a-(5 (trifluoromethyl)thiazole-2-carbonyl)-4,4a,5,6,7,8-hexahydro-1H-benzo[f]indazol-6-yl)-1-methyl-1H-imidazole-2-sulfonamide] are at most 100 nM and 75 to 90%.
The like results for `Cn1ccc(S(=O)(=O)N(C2CC(F)(F)C2)[C@H]2CCC3=Cc4c(cnn4-c4ccc(F)cc4)C[C@]3(C(=O)c3cc(F)ccn3)C2)n1` [Example 267, N-(3,3-difluorocyclobutyl)-N-((4aS,6S)-1-(4-fluorophenyl)-4a-(4-fluoropicolinoyl)-4,4a,5,6,7,8-hexahydro-1H-benzo[f]indazol-6-yl)-1-methyl-1H-pyrazole-3-sulfonamide] were, in that order, at most 100 nM and 50 to 75%.
`Cn1cc(S(=O)(=O)N(C2CC2)[C@H]2CCC3=Cc4c(cnn4-c4ccc(F)cc4)C[C@]3(C(=O)c3cc(Cl)ccn3)C2)nn1` [Example 268, N-((4aS,6S)-4a-(4-chloropicolinoyl)-1-(4-fluorophenyl)-4,4a,5,6,7,8-hexahydro-1H-benzo[f]indazol-6-yl)-N-cyclopropyl-1-methyl-1H-1,2,3-triazole-4-sulfonamide] came in with an IC50 in series [1] of at most 100 nM. The compound further yielded an inhibition at 5 min in series [2] of 50 to 75%.
The like results for `CC(C)N([C@H]1CCC2=Cc3c(cnn3-c3ccc(F)cc3)C[C@]2(C(=O)c2cc(Cl)ccn2)C1)S(=O)(=O)c1cnn(C)n1` [Example 269, N-((4aS,6S)-4a-(4-chloropicolinoyl)-1-(4-fluorophenyl)-4,4a,5,6,7,8-hexahydro-1H-benzo[f]indazol-6-yl)-N-isopropyl-2-methyl-2H-1,2,3-triazole-4-sulfonamide] were, in that order, at most 100 nM and 75 to 90%.
The corresponding values for `Cn1ccc(S(=O)(=O)[C@H]2CCC3=Cc4c(cnn4-c4ccc(F)cc4)C[C@]3(C(=O)c3ccc(C(F)(F)F)cn3)C2)n1` [Example 272, ((4aS,6S)-1-(4-fluorophenyl)-6-((1-methyl-1H-pyrazol-3-yl)sulfonyl)-1,4,5,6,7,8-hexahydro-4aH-benzo[f]indazol-4a-yl)(5-(trifluoromethyl)pyridin-2-yl)methanone] are at most 100 nM and at most 25%.
The corresponding values for `O=C(c1cc(C(F)(F)F)ccn1)[C@]12Cc3cnn(-c4ccc(F)cc4)c3C=C1CC[C@H](N(CC1CC1)S(=O)(=O)c1ccc(F)cc1)C2` [Example 273, N-(cyclopropylmethyl)-4-fluoro-N-((4aS,6S)-1-(4-fluorophenyl)-4a-(4-(trifluoromethyl)picolinoyl)-4,4a,5,6,7,8-hexahydro-1H-benzo[f]indazol-6-yl)benzenesulfonamide] are at most 100 nM and at most 25%.
Turning to `CC(C)N([C@H]1CCC2=Cc3c(cnn3-c3ccc(F)cc3)C[C@]2(C(=O)c2cc(C(F)(F)F)ccn2)C1)S(=O)(=O)c1ccc(Cl)nc1` [Example 279, 6-chloro-N-((4aS,6S)-1-(4-fluorophenyl)-4a-(4-(trifluoromethyl)picolinoyl)-4,4a,5,6,7,8-hexahydro-1H-benzo[f]indazol-6-yl)-N-isopropylpyridine-3-sulfonamide], the IC50 in series [1] is at most 100 nM. The same compound came in with an inhibition at 5 min in series [2] of 50 to 75%.
The compound `Cn1cc(S(=O)(=O)N(CC(F)(F)F)[C@H]2CCC3=Cc4c(cnn4-c4ccc(F)cc4)C[C@]3(C(=O)c3cc(Cl)ccn3)C2)cn1` [Example 280, N-((4aS,6S)-4a-(4-chloropicolinoyl)-1-(4-fluorophenyl)-4,4a,5,6,7,8-hexahydro-1H-benzo[f]indazol-6-yl)-1-methyl-N-(2,2,2-trifluoroethyl)-1H-pyrazole-4-sulfonamide] returned an IC50 in series [1] of at most 100 nM. For the same compound, the inhibition at 5 min in series [2] lay in the range of 25 to 50%.
The like results for `CC(C)N([C@H]1CCC2=Cc3c(cnn3-c3ccc(F)cc3)C[C@]2(C(=O)c2ncc(C(F)(F)F)s2)C1)S(=O)(=O)c1cn(C)nn1` [Example 282, N-((4aS,6S)-1-(4-fluorophenyl)-4a-(5-(trifluoromethyl)thiazole-2-carbonyl)-4,4a,5,6,7,8-hexahydro-1H-benzo[f]indazol-6-yl)-N-isopropyl-1-methyl-1H-1,2,3-triazole-4-sulfonamide] were, in that order, at most 100 nM and 25 to 50%.
The corresponding values for `CC(C)N([C@H]1CCC2=Cc3c(cnn3-c3ccc(F)cc3)C[C@]2(C(=O)c2ncc(C(F)(F)F)s2)C1)S(=O)(=O)c1ccc(Cl)nc1` [Example 283, 6-chloro-N-((4aS,6S)-1-(4-fluorophenyl)-4a-(5-(trifluoromethyl)thiazole-2-carbonyl)-4,4a,5,6,7,8-hexahydro-1H-benzo[f]indazol-6-yl)-N-isopropylpyridine-3-sulfonamide] are at most 100 nM and at most 25%.
The corresponding values for `CC(C)N([C@H]1CCC2=Cc3c(cnn3-c3ccc(F)cc3)C[C@]2(C(=O)c2cc(C(F)(F)F)ccn2)C1)S(=O)(=O)c1cn(C)nn1` [Example 286, N-((4aS,6S)-1-(4-fluorophenyl)-4a-(4-(trifluoromethyl)picolinoyl)-4,4a,5,6,7,8-hexahydro-1H-benzo[f]indazol-6-yl)-N-isopropyl-1-methyl-1H-1,2,3-triazole-4-sulfonamide] are at most 100 nM and 75 to 90%.
